Two molecules from patent publication US8008354B2, “Death receptor sensitizing compounds and methods of use therefor” (Burnham Institute for Medical Research, priority 2006, dated 2011) can be followed below.

The subject of test [1] is solid tumor cell lines. Description: MTT cell viability of a spectrum of tumor cell lines with or without CH-11. The class given is cell-based. The settings on record: 10 tumor cell lines, CH-11 100 ng/mL, MTT 24 hours. As for the experimental part: FIG. 3. Compounds 6094911, 5809354, and 5569100 sensitize a spectrum of tumor cells to CH-11 anti-FAS antibody. Solid tumor cell lines were seeded overnight in 96 well plates at a density of 1×10^4 cells per well. The next day, cells were treated with increasing concentrations of compound 6094911, 5809354, or 5569100 with (square) or without (circle) CH-11 antibody (100 ng/mL). Cell viability was measured 24 hours later by MTT assay. Cell viability is expressed as a mean percentage of untreated cells+SD (n=3).
Cell death assays. Cell viability was measured by MTT and MTS assays, essentially as described in Schimmer et al. (2004). Absorbance readings were plotted against a standard curve to derive the corresponding cell number, and cell viability was expressed as a percentage relative to untreated cells. Apoptosis was measured by flow cytometric analysis of Annexin V surface expression after staining cells with FITC-anti-Annexin V and propidium iodide (PI) (Biovision, Mountain View, Calif.), as described in Pederson et al. (2002).
To assess the spectrum of activity of the small molecule FAS sensitizers, an additional 9 malignant cell lines derived from breast, ovarian, and prostate carcinomas were treated with increasing concentrations of the sensitizers in the presence or absence of CH-11. […]

The subject of test [2] is dsRed-PPC-1 cells. Description: In vivo survival and growth of pre-treated dsRed-PPC-1 cells injected into SCID mice. As for the experimental part:
FIG. 16. Decreases in cellular FLIP levels by siRNA diminishes the in vivo survival and growth of circulating prostate cancer cells. (A) Fluorescent dsRed-PPC-1 cells were transfected in culture with anti-FLIP siRNA (siFLIP, 25 nM) or control siRNA (siCtrl, 25 nM). Eight hours after transfection cells were harvested and 3.5×10^6 viable cells were injected into the tail veins of sublethally irradiated SCID mice. Five weeks after injection, or when mice became moribund, mice were sacrificed and their organs imaged using a fluorescent microscope (n=9). Representative images of tumor formation in the lung, bone, and liver are shown. (B) The total number and area of distant tumors from mice described above were quantified using image analysis software. Tumors were quantified from all five lobes of the lungs. Data points represent measurements from each mouse. Differences in the number and area of tumors are significant by the rank sum test. The bar represents the median of the population. Measurements were completed on unaltered images.
FIG. 17. Decreases in cellular FLIP levels by 5809354 diminishes the in vivo survival and growth of circulating prostate cancer cells. (A) Fluorescent dsRed-PPC-1 cells were treated in culture with 5809354 (30 μM) or buffer control. Sixteen hours after treatment cells were harvested and 3.5×10^6 viable cells were injected into the tail veins of sublethally irradiated SCID mice. Five weeks after injection, or when mice became moribund, mice were sacrificed and their organs imaged using a fluorescent microscope (n=8). Representative images of tumor formation in the lung, bone, and liver are shown. (B) The number and area of distant tumors from mice described above were quantified using image analysis software. Tumors were quantified from all five lobes of the lungs. Data points represent measurements from each mouse. Differences in the number and area of tumors are significant by the rank sum test. […]
In vivo studies. […] 3.5×10^6 viable cells (as measured by trypan blue exclusion assay) were either injected via the tail vein or subcutaneously into the hind limbs into sublethally irradiated (3.5 Gy) SCID mice (10 mice per treatment). […] Red fluorescent tumors were detected via whole body imaging and whole organ imaging using a Leica MZ FLIII fluorescent stereomicroscope with a 100 W mercury lamp, a 560/40 excitation filter, and a 610 long-pass emission filter. Images were acquired using a Leica DC350 digital camera at 0.8× magnification and analyzed using Image Pro Plus 6.0 (MediaCybernetics). A single common threshold was applied to identify and measure fluorescence in each organ (Cairns et al., 2004). The number of fluorescent spots and the corresponding pixel area were recorded for each lung lobe. All quantification was performed on unmanipulated images. […]

As for `CC(=O)CC(=O)Nc1ccc(Cl)c(C(F)(F)F)c1` [compound 6094911, N-[4-chloro-3-(trifluoromethyl)phenyl]-3-oxobutanamide], the “tumor cell lines sensitized to CH-11” value in test [1] is on record as 4 of 10.
For the molecule “4-(4-chloro-2-methylphenoxy)-N-hydroxybutanamide [compound 5809354]”, the Median survival in test [2] (cells treated in culture (5809354 30 μM 16 hours; FLIP siRNA 25 nM 8 hours), injected into tail veins of sublethally irradiated SCID mice) came out at 32 days. For the same molecule, the “tumor formation in lung, bone, and liver” value in test [2] (intravenous injection of treated cells, five weeks or when moribund) is listed as “decreased tumor formation”. The “median tumor number and median total tumor area within the lung” value in test [2] (intravenous injection of treated cells, image-based analysis) was “decreased”. For the same molecule, the “tumor weight after subcutaneous injection” value in test [2] (subcutaneous injection of treated cells, 3 weeks (data not shown)) was “no difference”. Further, in test [1], the “tumor cell lines sensitized to CH-11” value is given as “sensitized the same tumor lines with the exception of HT29”.
